Measurements reported in US7291612B2, “Immunomodulatory compounds” (Active Biotech A.B., priority 2002, dated 2007).

molecular target: T1, CD80-CD28 interaction (Homo sapiens, UniProt P33681); experiment: cell free Homogenous Time Resolved Fluorescence (HTRF) assay, inhibition of the CD80-CD28 interaction; format: binding; details: 4 hours at room temperature, read-out: Activity (EC50 in summary form)
T1 construct: mouse Fab fragment (fusion partner)
T1 sequence (P33681 35-242 limits assumed): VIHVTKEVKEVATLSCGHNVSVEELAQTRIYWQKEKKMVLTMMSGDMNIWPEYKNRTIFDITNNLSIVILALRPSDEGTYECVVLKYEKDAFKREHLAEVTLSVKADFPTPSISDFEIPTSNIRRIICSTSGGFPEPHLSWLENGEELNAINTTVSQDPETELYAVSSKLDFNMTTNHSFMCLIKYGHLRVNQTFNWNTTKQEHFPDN

SMILES | EC50 [µM]
CN(C)CCCNC(=O)c1ccc(-n2nc3c4ccccc4scc-3c2=O)cc1 [Example 165, N-[3-(dimethylamino)propyl]-4-(3-oxothiochromeno[4,3-c]pyrazol-2(3H)-yl)benzamide] | 1 to 10
CN1C(C)(C)CC(NC(=O)c2ccc(-n3nc4c5ccccc5scc-4c3=O)cc2)CC1(C)C [Example 168, 4-(3-oxothiochromeno[4,3-c]pyrazol-2(3H)-yl)-N-1,2,2,6,6-pentamethylpiperidin-4-ylbenzamide] | 1 to 10
CN(C)CCCNC(=O)c1ccc(-n2nc3c4cccc(F)c4scc-3c2=O)cc1 [Example 169, N-[3-(dimethylamino)propyl]-4-(6-fluoro-3-oxothiochromeno[4,3-c]pyrazol-2(3H)-yl)benzamide] | 1 to 10
O=C(NCCCNC1CCCCC1)c1ccc(-n2nc3c4cccc(F)c4scc-3c2=O)cc1 [Example 170, N-[(cyclohexylamino)propyl]-4-(6-fluoro-3-oxothiochromeno[4,3-c]pyrazol-2(3H)-yl)benzamide] | 1 to 10
CN1C(C)(C)CC(NC(=O)c2ccc(-n3nc4c5cccc(F)c5scc-4c3=O)cc2)CC1(C)C [Example 173, 4-(6-fluoro-3-oxothiochromeno[4,3-c]pyrazol-2(3H)-yl)-N-1,2,2,6,6-pentamethylpiperidin-4-ylbenzamide] | < 1

Next, values leading:

EC50 [µM] | SMILES
< 1 | O=C(NCCCNC1CCCCC1)c1ccc(-n2nc3c4ccccc4scc-3c2=O)cc1 [Example 166, N-[(cyclohexylamino)propyl]-4-(3-oxothiochromeno[4,3-c]pyrazol-2(3H)-yl)benzamide]
> 10 | O=C(NCCCCN1CCCC1)c1ccc(-n2nc3c4ccccc4scc-3c2=O)cc1 [Example 167, N-(pyrrolidin-1-yl-butyl)-4-(3-oxothiochromeno[4,3-c]pyrazol-2(3H)-yl)benzamide]
< 1 | O=C(NCCCCN1CCCC1)c1ccc(-n2nc3c4cccc(F)c4scc-3c2=O)cc1 [Example 171, N-(pyrrolidin-1-yl-butyl)-4-(6-fluoro-3-oxothiochromeno[4,3-c]pyrazol-2(3H)-yl)benzamide]
